Results from ChEMBL document CHEMBL1128746, “Aminoalkylindoles: structure-activity relationships of novel cannabinoid mimetics” (J Med Chem, 1995).

How the values were obtained:
[1] = biological target: Cannabinoid receptor 1 (Rattus norvegicus) (UniProt P20272); experiment: […] [3H]WIN-55212 binding to Cannabinoid receptor 1 in rat cerebellum membranes.; assay type: cell membranes; settings: Membrane, concentration not given here
Mus musculus = organism: Mus musculus; experiment: Concentration required to inhibit electrically induced contractions in isolated mouse vas deferens preparation in vitro; assay type: functional; settings: Mus musculus

Cannabinoid receptor 1 (Rattus norvegicus), sequence (P20272 whole entry): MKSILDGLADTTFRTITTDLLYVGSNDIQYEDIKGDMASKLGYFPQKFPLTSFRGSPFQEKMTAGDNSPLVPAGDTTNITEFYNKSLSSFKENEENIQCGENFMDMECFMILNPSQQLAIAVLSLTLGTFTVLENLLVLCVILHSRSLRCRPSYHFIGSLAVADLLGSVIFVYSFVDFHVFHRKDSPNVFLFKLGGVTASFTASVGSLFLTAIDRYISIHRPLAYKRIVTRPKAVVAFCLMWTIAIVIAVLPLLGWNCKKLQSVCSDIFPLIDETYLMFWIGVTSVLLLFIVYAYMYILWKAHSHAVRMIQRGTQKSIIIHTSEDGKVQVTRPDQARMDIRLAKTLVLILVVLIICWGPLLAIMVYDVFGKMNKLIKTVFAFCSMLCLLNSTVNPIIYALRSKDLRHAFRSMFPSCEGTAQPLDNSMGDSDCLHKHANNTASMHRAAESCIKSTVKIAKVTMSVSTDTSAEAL

SMILES | inhibition [1] [%] | IC50 (Mus musculus) [nM]
O=C(c1ccc(Br)c2ccccc12)c1cn(CCN2CCOCC2)c2ccccc12 | 98 | 5.5
COc1ccc(C(=O)c2c(C)n(CCCN3CCOCC3)c3ccccc23)cc1 | -6 | 360
COc1ccc(C(=O)c2c(C)n(CCN3CCOCC3)c3ccc(F)cc23)cc1 | 19 | 119
Cc1c(C(=O)c2ccc(C#N)cc2)c2ccccc2n1CCN1CCOCC1 | -1 | > 10000
COc1ccc(C(=O)c2c(Cl)n(CCN3CCOCC3)c3ccccc23)cc1 | 47 | 176
Cc1c(C(=O)c2ccccc2Cl)c2ccccc2n1CCN1CCOCC1 | 59 | 92
Cc1ccccc1C(=O)c1c(C)n(CCN2CCOCC2)c2ccccc12 | 13 | 715
COc1ccc(C(=O)c2cn(CCN3CCOCC3)c3cc(Br)ccc23)cc1 | 21 | 17
Cc1c(C=O)c2ccccc2n1CCN1CCOCC1 | 37 | 656
Cc1c(C(=O)c2cc3ccccc3c3ccccc23)c2ccccc2n1CCN1CCOCC1 | 75 | 175
Cc1cccc(C)c1C(=O)c1c(C)n(CCN2CCOCC2)c2ccccc12 | -5 | 1570
COc1ccc(C(=O)c2c(C)n(CCN3CCOCC3)c3ccc(C)cc23)cc1 | 7 | > 10000
Cc1cc(C)cc(C(=O)c2c(C)n(CCN3CCOCC3)c3ccccc23)c1 | 42 | 390
Cc1c(C(=O)c2cccc3cc4ccccc4cc23)c2ccccc2n1CCN1CCOCC1 | 74 | 57
COc1ccc(C(=O)c2cn(C(C)CN3CCOCC3)c3ccccc23)cc1 (stereo not given) | 35 | 3670
COc1ccc(C(=O)c2c(C)n(CCN3CCCCC3)c3ccccc23)cc1 | 34 | 1430
O=C(c1cccc2c1CCCC2)c1cn(CCN2CCOCC2)c2ccccc12 | 97 | 6
COc1ccc(C(=O)c2c(C)n(CC[N+]3([O-])CCOCC3)c3ccccc23)cc1 | -9 | > 10000

SMILES | inhibition [1] [%] | IC50 (Mus musculus) [nM]
Cc1c(C(=O)c2cnc3ccccc3c2)c2ccccc2n1CCN1CCOCC1 | 28 | 571
Cc1c(C(=O)c2ccc3ccc4cccc5ccc2c3c45)c2ccccc2n1CCN1CCOCC1 | 89 | 42
C[N+]1(CCn2cc(C(=O)c3cccc4ccccc34)c3ccccc32)CCOCC1 | 14 | 180
COc1ccc(C(=O)c2c(C)n(C(C)CN3CCOCC3)c3ccccc23)cc1 (stereo not given) | 34 | 1360
COc1ccc(C(=O)c2c(C)n(CCN3CCOCC3)c3cccc(C)c23)cc1 | 42 | > 10000
COc1cccc(C(=O)c2c(C)n(CCN3CCOCC3)c3ccccc23)c1 | 76 | 206
Cc1c(C(=O)c2ccc(O)cc2)c2ccccc2n1CCN1CCOCC1 | 15 | > 10000
Cc1c(C(=O)c2ccc(-c3ccccc3)cc2)c2ccccc2n1CCN1CCOCC1 | 9 | 10000
N#Cc1ccc(C(=O)c2cn(CCN3CCOCC3)c3ccccc23)c2ccccc12 | 96 | 4.8
Cc1c(C(=O)c2ccc(Cl)cc2)c2ccccc2n1CCN1CCOCC1 | 62 | 564
COc1ccc(C(=O)c2c(C)n(CCN3CCCC3)c3ccccc23)cc1 | 7 | 241
Cc1c(C(=O)c2cccc3ccccc23)c2ccccc2n1CC(=O)O | 21 | 9740
Cc1[nH]c2ccccc2c1C(=O)c1cccc2ccccc12 | 3 | > 10000
COc1ccc(C(=O)c2c(C)n(CCN3CCOCC3)c3c(OC)cccc23)cc1 | 64 | 266
COc1ccc(C(=O)c2c(C)n(CCO)c3ccccc23)cc1 | -6 | > 10000
COc1ccc(C(=O)c2c(C)n(CCN3CCOCC3)c3ccc(OC)cc23)cc1 | 14 | > 10000
Cc1c(C(=O)c2ccccc2F)c2ccccc2n1CCN1CCOCC1 | 15 | 1940
